Results on seven molecules are retold here after publication PMC5424325, “Effect of health foods on cytochrome P450-mediated drug metabolism” (Journal of Pharmaceutical Health Care and Sciences, 2017).

The target in data set [1] is T1, CYP2C9 (Homo sapiens, UniProt P11712).
T1 construct: expressed in transfected cells; host or cells: HepG2 cells infected with Ad-CYP2C9 (1 MOI) together with the four other P450 adenoviruses
The data set is described as follows: Kinetic analysis of diclofenac 4′-hydroxylation in Ad-P450 cells. The format is in vitro ADME. The protocol: The column oven temperature was maintained at 40 °C.

Data set [2] deals with T2, CYP2C19 (Homo sapiens, UniProt P33261).
T2 construct: expressed in transfected cells; host or cells: HepG2 cells infected with Ad-CYP2C19 (2 MOI) together with the four other P450 adenoviruses
T2 sequence (P33261 whole entry): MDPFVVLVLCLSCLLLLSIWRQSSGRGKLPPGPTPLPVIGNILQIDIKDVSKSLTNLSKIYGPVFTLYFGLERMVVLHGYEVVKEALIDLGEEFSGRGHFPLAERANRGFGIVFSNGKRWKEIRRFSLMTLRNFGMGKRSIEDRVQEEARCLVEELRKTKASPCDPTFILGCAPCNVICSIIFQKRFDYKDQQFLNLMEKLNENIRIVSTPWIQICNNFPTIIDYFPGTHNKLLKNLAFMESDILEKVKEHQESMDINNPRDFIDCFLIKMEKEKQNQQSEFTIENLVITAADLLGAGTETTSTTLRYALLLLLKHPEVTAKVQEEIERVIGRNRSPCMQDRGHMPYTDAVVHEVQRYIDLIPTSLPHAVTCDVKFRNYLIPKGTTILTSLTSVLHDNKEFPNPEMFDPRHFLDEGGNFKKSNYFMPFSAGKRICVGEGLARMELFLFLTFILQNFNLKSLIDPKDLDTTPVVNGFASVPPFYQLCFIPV
The data set is described as follows: Kinetic analysis of omeprazole 5-hydroxylation in Ad-P450 cells. The format is in vitro ADME.
Protocol: (§1) The cells were seeded in a 48-well tissue culture plate (Becton Dickinson) at 5.0 × 10^4 cells/well. After 48 h, the cells were simultaneously infected with Ad-CYP1A2 at 5 multiplicity of infection (MOI), Ad-CYP2C9 at 1 MOI, Ad-CYP2C19 at 2 MOI, Ad-CYP2D6 at 0.05 MOI, and Ad-CYP3A4 at 10 MOI. […] After shaking, the mixtures were centrifuged at 2500 × g for 10 min and the supernatants were evaporated to dryness at 60 °C in a block incubator. The residues were dissolved in acetonitrile containing 0.1% acetic acid and the solutions were subjected to liquid chromatography/tandem mass spectrometry (LC-MS/MS) analysis.
(§2) The Prominence system (Shimadzu Corporation, Kyoto, Japan) equipped with LCMS-8040 system (Shimadzu Corporation) was used for LC-MS/MS analysis with an electrospray ionization interface. The ionization mode used was positive in the multiple reaction monitoring. The chromatographic separation was performed on Xterra MS C18 columns (2.1 mm × 100 mm, 5 μm) (Waters, Milford, MA, USA). The column oven temperature was maintained at 40 °C. The mobile phase consisted of acetonitrile containing 0.1% acetic acid and water containing 0.1% acetic acid (85:15) with a flow rate of 200 μL/min. […]
(§3) The Km, Vmax, and IC50 values were determined using Prism software (version 6.0; GraphPad Software Inc., San Diego, CA, USA).

Data set [3] deals with T3, CYP3A4 (Homo sapiens, UniProt P08684).
T3 construct: expressed in transfected cells; host or cells: HepG2 cells infected with Ad-CYP3A4 (10 MOI) together with the four other P450 adenoviruses
T3 sequence (P08684 whole entry): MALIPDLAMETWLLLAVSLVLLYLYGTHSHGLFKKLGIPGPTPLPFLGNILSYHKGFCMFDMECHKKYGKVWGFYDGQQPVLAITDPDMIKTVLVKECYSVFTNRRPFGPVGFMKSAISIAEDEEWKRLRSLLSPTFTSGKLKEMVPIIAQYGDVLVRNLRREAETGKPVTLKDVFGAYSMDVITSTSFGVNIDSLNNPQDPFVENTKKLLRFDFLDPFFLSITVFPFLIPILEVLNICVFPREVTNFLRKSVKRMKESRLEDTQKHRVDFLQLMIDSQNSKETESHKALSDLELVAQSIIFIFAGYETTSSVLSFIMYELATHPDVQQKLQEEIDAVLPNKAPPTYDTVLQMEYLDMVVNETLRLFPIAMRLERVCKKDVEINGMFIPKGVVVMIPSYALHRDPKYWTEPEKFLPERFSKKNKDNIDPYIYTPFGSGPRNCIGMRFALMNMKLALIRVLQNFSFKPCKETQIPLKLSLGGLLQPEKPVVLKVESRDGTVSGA
The data set is described as follows: Kinetic analysis of midazolam 1′-hydroxylation in Ad-P450 cells. The format is in vitro ADME.
Protocol: as §1, §2, §3

For data set [4], the target named is T4, CYP1A2 (Homo sapiens, UniProt P05177).
T4 sequence (P05177 1-516): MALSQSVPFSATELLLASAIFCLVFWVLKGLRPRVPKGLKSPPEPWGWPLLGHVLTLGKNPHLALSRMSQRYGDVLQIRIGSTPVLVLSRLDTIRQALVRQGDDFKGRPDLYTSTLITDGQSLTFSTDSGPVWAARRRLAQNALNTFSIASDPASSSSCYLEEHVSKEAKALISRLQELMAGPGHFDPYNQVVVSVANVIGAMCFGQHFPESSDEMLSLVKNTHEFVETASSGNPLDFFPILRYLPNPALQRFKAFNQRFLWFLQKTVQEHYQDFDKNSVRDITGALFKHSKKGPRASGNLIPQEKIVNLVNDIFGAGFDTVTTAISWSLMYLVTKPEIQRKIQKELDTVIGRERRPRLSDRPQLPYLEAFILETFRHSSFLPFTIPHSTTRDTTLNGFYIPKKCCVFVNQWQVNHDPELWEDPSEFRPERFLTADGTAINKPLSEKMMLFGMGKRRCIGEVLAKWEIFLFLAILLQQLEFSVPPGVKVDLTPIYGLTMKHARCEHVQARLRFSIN
Particulars: Phenacetin O-deethylation, Ad-P450 cells, 5 h.
Protocol: as §1, §2, §3

Data set [5] addresses T2, CYP2C19. The data set is described as follows: CYP2C19 inhibition (omeprazole 5-hydroxylation) in Ad-P450 cells, substrate cocktail. In kind it is in vitro ADME. Particulars: probe omeprazole (5-hydroxylation), read-out: Residual activity CYP2C19.
Data set [6] deals with T5, CYP2D6 (Homo sapiens, UniProt P10635).
T5 construct: expressed in transfected cells; host or cells: HepG2 cells infected with Ad-CYP2D6 (0.05 MOI) together with the four other P450 adenoviruses
T5 sequence (P10635 whole entry): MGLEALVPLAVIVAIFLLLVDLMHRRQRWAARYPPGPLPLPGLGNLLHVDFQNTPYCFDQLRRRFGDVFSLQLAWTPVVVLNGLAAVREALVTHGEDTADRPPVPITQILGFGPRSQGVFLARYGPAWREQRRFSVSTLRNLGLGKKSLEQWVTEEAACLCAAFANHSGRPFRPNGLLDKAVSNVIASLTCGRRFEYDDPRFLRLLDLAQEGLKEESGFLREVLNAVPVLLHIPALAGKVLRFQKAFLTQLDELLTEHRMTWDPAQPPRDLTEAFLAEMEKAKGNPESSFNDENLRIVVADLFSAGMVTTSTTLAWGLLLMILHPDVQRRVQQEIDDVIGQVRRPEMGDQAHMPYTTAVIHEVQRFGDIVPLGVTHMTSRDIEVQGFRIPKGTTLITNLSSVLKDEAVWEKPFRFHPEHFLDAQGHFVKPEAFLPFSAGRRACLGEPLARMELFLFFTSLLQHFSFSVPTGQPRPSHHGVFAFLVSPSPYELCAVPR
The data set is described as follows: CYP2D6 inhibition (dextromethorphan O-demethylation) in Ad-P450 cells, substrate cocktail. The format is in vitro ADME. Particulars: read-out: Residual activity CYP2D6.

The target of data set [7] is T3, CYP3A4. The data set is described as follows: CYP3A4 inhibition (midazolam 1′-hydroxylation) in Ad-P450 cells, substrate cocktail. In kind it is in vitro ADME. To be noted: probe midazolam (1′-hydroxylation), read-out: Residual activity CYP3A4.
Data set [8] deals with T4, CYP1A2. The data set is described as follows: CYP1A2 inhibition (phenacetin O-deethylation) in Ad-P450 cells, substrate cocktail. The format is in vitro ADME. Details: expressed in transfected cells; host or cells: HepG2 cells infected with Ad-CYP1A2 (5 MOI) together with the four other P450 adenoviruses. Particulars: probe phenacetin (O-deethylation), read-out: Residual activity CYP1A2.

Data set [9] relates to CYP1A2. To be noted: cited from earlier work.
The subject of data set [10] is CYP2C9. Particulars: competitive inhibitor; cited from earlier work.
The test system of data set [11] is CYP3A4. To be noted: cited from earlier work.
In data set [12] the target is T5, CYP2D6. The data set is described as follows: Kinetic analysis of dextromethorphan O-demethylation in Ad-P450 cells. The format is in vitro ADME.
Protocol: as §1, §2, §3

Each structure is given as a SMILES string.

T1 sequence (P11712 whole entry): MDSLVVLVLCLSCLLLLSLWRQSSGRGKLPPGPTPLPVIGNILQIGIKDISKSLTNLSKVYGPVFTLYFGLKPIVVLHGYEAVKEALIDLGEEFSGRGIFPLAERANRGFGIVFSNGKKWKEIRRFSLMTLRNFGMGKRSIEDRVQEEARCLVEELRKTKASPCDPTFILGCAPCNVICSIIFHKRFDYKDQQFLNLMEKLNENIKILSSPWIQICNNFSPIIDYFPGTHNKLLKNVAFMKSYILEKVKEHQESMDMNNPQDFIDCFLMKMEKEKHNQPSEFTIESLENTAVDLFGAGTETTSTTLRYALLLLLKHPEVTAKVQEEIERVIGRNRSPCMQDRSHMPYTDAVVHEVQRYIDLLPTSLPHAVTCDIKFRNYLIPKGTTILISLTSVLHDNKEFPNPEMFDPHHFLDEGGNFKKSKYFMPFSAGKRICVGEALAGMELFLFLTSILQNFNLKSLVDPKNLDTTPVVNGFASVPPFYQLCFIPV

As for `O=C(O)Cc1ccccc1Nc1c(Cl)cccc1Cl` [Diclofenac], in [1] (5 h), the Vmax worked out at 239.9 pmol/well/hr. Moreover, in data set [1] (human), the Km at 5 h was 5.87 µM.

Regarding `COc1ccc2[nH]c([S+]([O-])Cc3ncc(C)c(OC)c3C)nc2c1` (stereo not shown) [Omeprazole], in data set [2] (5 h), the Vmax is recorded as 4.66 pmol/well/hr. In data set [2] (human), the Km at 5 h was 2.75 µM.

`Cc1ncc2n1-c1ccc(Cl)cc1C(c1ccccc1F)=NC2` [Midazolam]: the Vmax in data set [3] (Midazolam 1′-hydroxylation, Ad-P450 cells, 5 h) was determined as 12.30 pmol/well/hr. For the same molecule, the Km at 5 h in [3] (human) amounted to 1 µM.

As to `CCOc1ccc(NC(C)=O)cc1` [Phenacetin], in data set [4], the Vmax is reported as 100.30 pmol/well/hr.

Take `COc1cc(/C=C/C(=O)CC(=O)/C=C/c2ccc(O)c(OC)c2)ccc1O` [curcumin]: the activity at 5 h, 50 μM stood at 72.7% in data set [5], 71.9% in data set [6], 61.9% in data set [7] and 58.3% in [8].

For the molecule `c1cc2c(cc1[C@H]1OC[C@H]3[C@@H]1CO[C@@H]3c1ccc3c(c1)OCO3)OCO2` [Sesamin], the results for the Ki in data set [9], in data set [10] and in data set [11] were 75 µM, 24 µM and 4.2 µM, respectively.

Regarding `COc1ccc2c(c1)[C@]13CCCC[C@@H]1[C@H](C2)N(C)CC3` [Dextromethorphan], the Vmax in data set [12] (Dextromethorphan O-demethylation, Ad-P450 cells, 5 h) came to 1.10 pmol/well/hr. Besides, the Michaelis-Menten constant (Km) at 5 h in data set [12] (human) stood at 17.1 µM.
